Measured values published in paper PMC5537305, “Photo-enhanced Aqueous Solubilization of an Azo-compound” (Scientific Reports, 2017).
Values after ≈ are worked out from the molar mass of the structure shown.

Legend:
Assay type in all cases: physicochemical
[1] = Aqueous solubilization in 1/15 M phosphate buffer (pH 7.4) under UV, visible light or dark, with cis ratio in solution by HPLC
Protocol: (§1) Table S3. Cis ratio and aqueous solubilization of 3 under UV irradiation, under visible light irradiation, and in […]
(§2) Compound 3 was shaken at 37 °C under UV irradiation, under visible light irradiation, and in the dark. UV irradiation was performed with a mercury lamp (0.5 mW/cm2). Cis ratio in the aqueous solution was evaluated from the peak areas in HPLC immediately after filtration.
Table S4. Aqueous solubilization and cis ratio of 3 under irradiation at various wavelengths through filters of […]
Illumination was performed with a xenon lamp using repeated cycles of irradiation and shaking (5000 flashes, then shaking for 10 sec) through filters of various bandwidths at room temperature (20-22 °C) for 1 h. The cis ratio in the aqueous solution was evaluated by HPLC immediately after filtration, based on peak area.
Table S5. Aqueous solubilization of 3 under UV irradiation at various intensity levels.
Sample irradiation was conducted using 365 nm LED light (max light intensity: 290 mW/cm2) at 37 °C for 1 […]
Sample irradiations were conducted with the white light through a filter cutting off wavelengths below 560 nm, or with 365 nm LED light (344 mW/cm2) at 37 °C for 1 h.
Table S7. Aqueous dissolution of UV-irradiated crystals of 3 measured in the dark, and the cis ratio contained […]
Crystals of 3 were irradiated with 365 nm LED light (344 mW/cm2) at 37 °C for 3 h.
The UV-irradiated crystals and unirradiated crystals were each shaken in phosphate buffer in the dark at 37 °C for 1 h.
Physicochemical properties […]
Compound 3 (about 0.2 mg) was ground and taken up in 1/15 M phosphate buffer (pH 7.4, 1.0 mL) in a 10 mL glass tube. The suspension was incubated under ultrasound irradiation for 10 min, and shaken in a temperature controllable incubator located in a dark room for the indicated time at the indicated temperature.
With shaking on a plate shaker, a sample was irradiated with a 365 nm mercury lamp (4 W, UVP compact […]
white LED light (5 W, Nikki Trading Corp., NLSS05BM, 68 and 54 mW/cm2 at 450 and 540 nm, respectively) through a filter cutting off wavelengths below 560 nm (Atto Corp. YA-3). Irradiation was done from the top of the sample glass tube. Then, the suspension was filtered through a Millipore Millex-LG (0.20 […]
For irradiation at various UV wavelengths, 3 (about 0.1 mg) was ground and taken up in 1/15 M phosphate buffer (pH 7.4, 0.2 mL) in a well of a 96-well white plate. Illumination over a range of wavelength from 355-540 nm was performed using a plate reader EnVision equipped with a xenon flash lamp (35 W, 500 Hz), with excitation filters of appropriate bandwidths.

[2] = Aqueous solubility of stilbenes 1 and 2 in phosphate buffer; conditions: for solubility at 24 h: 20 °C, aqueous buffer, thermodynamic from solid, 20 °C for 24 h
Source text: First, we synthesized cis- and trans-stilbene analogs 1 and 2 as models for cis- and trans-azobenzenes, respectively (Fig. 1, Fig. S1). As expected, cis-1 was 14 times more soluble than trans-2 in phosphate buffer (Table S1). To confirm the putative mechanism of the higher solubility of the cis isomer, the melting point and LogP ow were examined as parameters of intermolecular interaction and hydrophobicity, respectively. The order of lower melting points (cis < trans) was the same as the order of higher aqueous solubility (cis > trans). As for hydrophobicity, the LogP ow values of 1 and 2 were almost the same. […] Therefore, the bent and twisted structure of cis-azobenzenes may result in greater aqueous solubility.
Table S1. Physicochemical properties of stilbenes 1 and 2.
Compound (µg/mL) Melting point (º C) LogPow λmax (nm)
Table S2. Photoinduced isomerization of 3
Light Time (min) cis ratio (%) trans ratio (%)
Compound 3 (10 µM) in a mixture of water and MeOH (1%) was successively exposed to white light and to a 365 nm mercury lamp (0.5 mW/cm2). The cis-trans ratio was calculated from the peak areas in HPLC.
as §1
Shake UV light Visible light Dark time cis ratio Solubilized 3 cis ratio Solubilized 3 cis ratio Solubility (%) (µg/mL) (%) (µg/mL) (%) (µg/mL)
as §2

[3] = LogPow by HPLC method (OECD 117); conditions: reversed-phase HPLC column (Inertsil ODS-4)
Protocol: Inc. Inertsil ODS-4 reversed-phase column, 5 µm, 4.6 mm x 150 mm) eluted with a mobile phase consisting of H2O and CH3CN (45: 55) at a flow rate of 1.0 mL/min, with UV monitoring at 300 (for 1) or 330 (for 2) nm, at 37 ° C. The dead time t0 was measured with thiourea as the unretained compound. Each measurement was performed in duplicate, and the mean retention time (tR) was used for further calculations. The capacity factor of each compound, k = ((tR – t0) / t0), was calculated by extrapolation of the line fitted on the measured log k values of CH3CN−aqueous mobile phase. For the reference substrates (acetanilide, methyl benzoate, toluene, 4-phenylphenol, benzyl benzoate, dibenzyl), the calculated log k values were plotted against logPow values, and the absolute calibration curve was determined (LogP = 2.8279 x (log k) + 1.6035, R2=0.98). The LogP values of tested compounds were calculated using a previously prepared calibration curve from the tR […]
We observed the azobenzene compound using an optical microscope (BX-51P, Olympus). Bright-field images were captured in the reflection mode. For investigation of the existence of the polarization plane in the sample, the transmitted polarizing microscope mode under crossed-Nicol conditions was used. […] The intensity of illuminating UV light at the sample was monitored with an optical power meter […]

Row | Compound | aqueous solubilization under UV irradiation vs in the dark ([1]; UV 0.5 mW/cm2, 37 °C, 5 h) | increase of solubilization by UV irradiation ([1]; more intense UV irradiation (344 mW/cm2)) | solubility at 24 h [2] | times more soluble than trans-2 ([2]; cis-1 vs trans-2) | chromatographic logP [3]
1 | O=C(O)c1cc(/N=N/c2ccc(S(=O)(=O)Nc3ccccn3)cc2)ccc1O [Compound 4, Sulfasalazine, reference compound] | essentially the same | 1.4 fold |  |  | 
2 | COc1ccc(/C=C\c2ccc(OC)c(OC)c2)cc1OC [cis-1] |  |  | 0.673 µg/mL (≈ 2.24 µM) | 14 times | 3.3
3 | COc1ccc(/C=C/c2ccc(OC)c(OC)c2)cc1OC [trans-2] |  |  | 0.0475 µg/mL (≈ 0.158 µM) |  | 3.2
